Patent US20210220494A1, “COMPOSITIONS AND METHODS FOR TARGETED PARTICLE PENETRATION, DISTRIBUTION, AND RESPONSE IN MALIGNANT BRAIN TUMORS” (Memorial Sloan Kettering Cancer Center, priority 2016, published 2021)

Experiments:
macrophages = conditions: cited from earlier work
ECLC26 flank tumor = conditions: ECLC26 flank tumors, multi-dose, caliper measurements
Description: Tumor volume was measured using caliper measurements of the maximal dimensions of the tumor daily.
Nude mice were implanted with 2 million ECLC26 cells. Mice bearing tumors were treated by i.v. of 200 μL saline or 15 μM Gef-NDC for 2 doses of Gavage with 15 mg/ml Gefitinib, 10 μL/g for 10 days.

[1] = cited from earlier work
NSCLC CNS metastases = conditions: pulsatile high-dose, cited from earlier work

Structure (SMILES): CNC(=O)c1cc(Oc2ccc3nc(N[C@@H]4CCCC[C@H]4O)sc3c2)ccn1 [BLZ945]
- expression of M2 polarization markers in TAMs (macrophages): decreased expression of M2 polarization markers
- phagocytic activity of macrophages (macrophages): upregulated

Structure (SMILES): COc1cc2ncnc(Nc3ccc(F)c(Cl)c3)c2cc1OCCCN1CCOCC1 [Gefitinib, gefitinib]
- tumor volume over time (ECLC26 flank tumor): steady decrease in tumor volume
- protein binding [1]: highly protein bound

Structure (SMILES): C#Cc1cccc(Nc2ncnc3cc(OCCOC)c(OCCOC)cc23)c1 [erlotinib]
- response of CNS metastases (NSCLC CNS metastases; 3 patients): the response is unpredictable, even at high dose
- CNS penetration (NSCLC CNS metastases; patients): improves CNS penetration for NSCLC metastases
